In US20230034978A1, “PROCESS FOR MEASURING EFFICACY OF PAIN THERAPY” (priority 2021, published 2023):

Assays:
[1] = tested on: CMi fibers (axon flare) in rhesus monkeys; assay: DLss induced axon flare before and after intradermal lidocaine injection; assay type: in vivo; settings: intradermal 2.0% lidocaine injection; four rhesus monkeys; saline subdermal injection as control
Text: Lidocaine is a wide spectrum sodium channel blocker that is used clinically as a dermal patch or intradermal injection 97-99 for treatment of peripheral neuropathic pain 3, 99. […] C and Aδ fibers are differentially affected by lidocaine treatment 99-101, and suppression of repetitive CMi activation that mimics spontaneous activity is a potent consequence of lidocaine treatment 100. Flare response in rhesus monkeys, a primate animal model for human neuropathic pain generation and nociceptor dynamics was similar to that observed in healthy subjects (FIG. 2). A total of four monkeys were tested. DLss induced flare was evaluated before and after intradermal 2.0% lidocaine injection and saline subdermal injection was used as a control. […]
• Diode laser for selective stimulation (DLss) testing of C:Aδ ratio. […] Skin temperature on the dorsal foot will be monitored and maintained at 32-33° C. using periodic heating pad warming. • Laser detection and pain thresholds (separately for Aδ and C fiber stimulation) were quantified using the “method of levels” on a 6×6 cm stimulus grid drawn on the foot dorsum, shifting location and using a series of ascending stimulations starting from sub-detection intensity, increasing by fixed increments with the highest stimulation determined by participant reporting a painful sensation with intensity between 30 and 40 on the 0-100 VAS. […]

peripheral ONP = settings: lidocaine injection; reference 12; cited from earlier work
[2] = tested on: participants with peripheral ongoing neuropathic pain (p-ONP) / peripheral neuropathy; assay: Lidocaine patch cross-over trial (Example 2A): pain VAS and DLss C:Aδ ratio; assay type: in vivo, human; settings: lidocaine patch (5%) or placebo patch, 7 day treatment, p<0.01
Description: 70 p-ONP participants to with mean pain VAS >40 mm who undergo baseline DLss, and pain measures. Response to VAS was compared to change in C:Aδ ratio following treatment with peripherally active lidocaine patch (5%), or placebo patch using a 7 day treatment cross-over design with 14 day washout between treatment arms.
• Diode laser for selective stimulation (DLss) testing of C:Aδ ratio. Detection and pain thresholds for fiber-selective laser stimulation was performed with Lass-10M, as previously described (patents U.S. Pat. No. 7,402,167B2 and U.S. Pat. No. 8,029,553B2). The foot dorsum was shaved to limit light absorption and overheating. Skin temperature on the dorsal foot will be monitored and maintained at 32-33° C. using periodic heating pad warming. • Laser detection and pain thresholds (separately for Aδ and C fiber stimulation) were quantified using the “method of levels” on a 6×6 cm stimulus grid drawn on the foot dorsum, shifting location and using a series of ascending stimulations starting from sub-detection intensity, increasing by fixed increments with the highest stimulation determined by participant reporting a painful sensation with intensity between 30 and 40 on the 0-100 VAS. […] Blood perfusion was recorded by Speckle Imaging (PeriCam PSI System, Perimed, Sweden), following DLss stimulus using the C fiber protocol above. […]

For CCN(CC)CC(=O)Nc1c(C)cccc1C [lidocaine], the “axon flare area after injection compared to saline” value [1] is listed as “markedly reduced”, the “block of peripheral ONP” value (peripheral ONP) is listed as “completely block” and the “Change in C:Aδ ratio, lidocaine versus placebo treatment groups” value [2] is listed as “distinguish lidocaine from placebo treatment groups”.
